In ChEMBL document CHEMBL3046052, “New thiazolidinedione-5-acetic acid amide derivatives: synthesis, characterization and investigation of antimicrobial and cytotoxic properties” (Med Chem Res, 2012):
Converted amounts (≈) assume the structure as drawn.

How the values were obtained:
Enterococcus faecalis = assay: Antibacterial activity against Enterococcus faecalis ATCC 35550 after 24 hr by NCCLS two-fold serial dilution method; assay type: functional; settings: ATCC 35550, 24 h
Cryptococcus neoformans = assay: Antifungal activity against Cryptococcus neoformans clinical isolate after 48 hr by NCCLS two-fold serial dilution method; assay type: functional
MCF7 = assay: Cytotoxicity against Homo sapiens (human) MCF7 cells after 24 hr by MTT assay; assay type: functional, cell-based; settings: MCF7, 24 h
A549 = assay: Cytotoxicity against Homo sapiens (human) A549 cells after 24 hr by MTT assay; assay type: functional, cell-based; settings: A549, 24 h
Candida albicans = assay: Antifungal activity against Candida albicans ATCC 2091 after 48 hr by NCCLS two-fold serial dilution method; assay type: functional; settings: ATCC 2091, 48 h
Aspergillus niger = assay: Antifungal activity against Aspergillus niger ATCC 6275 after 48 hr by NCCLS two-fold serial dilution method; assay type: functional; settings: ATCC 6275, 48 h
Aspergillus flavus = assay: Antifungal activity against Aspergillus flavus NCIM 524 after 48 hr by NCCLS two-foldserial dilution method; assay type: functional; settings: NCIM 524, 48 h
HT-29 = assay: Cytotoxicity against Homo sapiens (human) HT-29 cells after 24 hr by MTT assay; assay type: functional, cell-based; settings: HT-29, 24 h
HeLa = assay: Cytotoxicity against Homo sapiens (human) HeLa cells after 24 hr by MTT assay; assay type: functional, cell-based
Staphylococcus aureus = assay: Antibacterial activity against Staphylococcus aureus ATCC 25923 after 24 hr by NCCLS two fold serial dilution method; assay type: functional; settings: ATCC 25923, 24 h
Pseudomonas aeruginosa = assay: Antibacterial activity against Pseudomonas aeruginosa ATCC 25619 after 24 hr by NCCLS two-fold serial dilution method; assay type: functional; settings: ATCC 25619, 24 h
Escherichia coli = assay: Antibacterial activity against Escherichia coli ATCC 35218 after 24 hr by NCCLS two-fold serial dilution method; assay type: functional; settings: ATCC 35218, 24 h

Row | SMILES | MIC (Enterococcus faecalis) | MIC (Cryptococcus neoformans) | IC50 (MCF7) | IC50 (A549) | MIC (Candida albicans) | MIC (Aspergillus niger) | MIC (Aspergillus flavus) | IC50 (HT-29) | IC50 (HeLa) | MIC (Staphylococcus aureus) | MIC (Pseudomonas aeruginosa) | MIC (Escherichia coli)
1 | COc1ccc(-c2nnc(NC(=O)CC3SC(=O)NC3=O)s2)cc1 (centres undefined) | 4 µg/mL (≈ 11 µM) | 16 µg/mL (≈ 43.9 µM) | 42 µM | 45 µM | 16 µg/mL (≈ 43.9 µM) | 16 µg/mL (≈ 43.9 µM) | 32 µg/mL (≈ 87.8 µM) | 44 µM | 42 µM | 16 µg/mL (≈ 43.9 µM) | 16 µg/mL (≈ 43.9 µM) | 32 µg/mL (≈ 87.8 µM)
2 | O=C(CC1SC(=O)NC1=O)Nc1nnc(-c2ccc(F)cc2)s1 (centres undefined) | 4 µg/mL (≈ 11.4 µM) | 8 µg/mL (≈ 22.7 µM) | 60 µM | 50 µM | 8 µg/mL (≈ 22.7 µM) | 4 µg/mL (≈ 11.4 µM) | 8 µg/mL (≈ 22.7 µM) | 42 µM | 50 µM | 4 µg/mL (≈ 11.4 µM) | 8 µg/mL (≈ 22.7 µM) | 8 µg/mL (≈ 22.7 µM)
3 | O=C(CC1SC(=O)NC1=O)Nc1nnc(-c2ccc([N+](=O)[O-])cc2)s1 (centres undefined) | 32 µg/mL (≈ 84.3 µM) | 64 µg/mL (≈ 169 µM) | 72 µM | 68 µM | 64 µg/mL (≈ 169 µM) | 64 µg/mL (≈ 169 µM) | 32 µg/mL (≈ 84.3 µM) | 60 µM | 50 µM | 32 µg/mL (≈ 84.3 µM) | 64 µg/mL (≈ 169 µM) | 64 µg/mL (≈ 169 µM)
4 | COc1ccc(-c2nnc(NC(=O)CC3SC(=O)NC3=O)s2)cc1OC (centres undefined) | 32 µg/mL (≈ 81.1 µM) | 16 µg/mL (≈ 40.6 µM) | 38 µM | 35 µM | 16 µg/mL (≈ 40.6 µM) | 32 µg/mL (≈ 81.1 µM) | 16 µg/mL (≈ 40.6 µM) | 42 µM | 40 µM | 16 µg/mL (≈ 40.6 µM) | 16 µg/mL (≈ 40.6 µM) | 16 µg/mL (≈ 40.6 µM)
5 | O=C(CC1SC(=O)NC1=O)Nc1nnc(-c2ccccc2Cl)s1 (centres undefined) | 16 µg/mL (≈ 43.4 µM) | 16 µg/mL (≈ 43.4 µM) | 84 µM | 62 µM | 16 µg/mL (≈ 43.4 µM) | 16 µg/mL (≈ 43.4 µM) | 32 µg/mL (≈ 86.8 µM) | 66 µM | 60 µM | 16 µg/mL (≈ 43.4 µM) | 32 µg/mL (≈ 86.8 µM) | 32 µg/mL (≈ 86.8 µM)
6 | CC1(C)S[C@@H]2[C@H](NC(=O)[C@H](N)c3ccccc3)C(=O)N2[C@H]1C(=O)O [AMPICILLIN] | 2 µg/mL (≈ 5.72 µM) |  |  |  |  |  |  |  |  | 2 µg/mL (≈ 5.72 µM) |  | 
7 | O=C(CC1SC(=O)NC1=O)Nc1nnc(-c2cccc([N+](=O)[O-])c2)s1 (centres undefined) | 64 µg/mL (≈ 169 µM) | 64 µg/mL (≈ 169 µM) | 67 µM | 78 µM | 64 µg/mL (≈ 169 µM) | 64 µg/mL (≈ 169 µM) | 64 µg/mL (≈ 169 µM) | 72 µM | 68 µM | 32 µg/mL (≈ 84.3 µM) | 32 µg/mL (≈ 84.3 µM) | 64 µg/mL (≈ 169 µM)
8 | O=C(CC1SC(=O)NC1=O)Nc1nnc(-c2ccccc2)s1 (centres undefined) | 64 µg/mL (≈ 191 µM) | 64 µg/mL (≈ 191 µM) | 80 µM | 80 µM | 64 µg/mL (≈ 191 µM) | 64 µg/mL (≈ 191 µM) | 64 µg/mL (≈ 191 µM) | 78 µM | 62 µM | 32 µg/mL (≈ 95.7 µM) | 64 µg/mL (≈ 191 µM) | 64 µg/mL (≈ 191 µM)
9 | O=C(CC1SC(=O)NC1=O)Nc1nnc(-c2ccccc2[N+](=O)[O-])s1 (centres undefined) | 64 µg/mL (≈ 169 µM) | 64 µg/mL (≈ 169 µM) | 78 µM | 72 µM | 64 µg/mL (≈ 169 µM) | 16 µg/mL (≈ 42.2 µM) | 64 µg/mL (≈ 169 µM) | 68 µM | 50 µM | 32 µg/mL (≈ 84.3 µM) | 64 µg/mL (≈ 169 µM) | 64 µg/mL (≈ 169 µM)
10 | CC(=O)N1CCN(c2ccc(OCC3COC(Cn4ccnc4)(c4ccc(Cl)cc4Cl)O3)cc2)CC1 (centres undefined) [KETOCONAZOLE] |  | 2 µg/mL (≈ 3.76 µM) |  |  | 2 µg/mL (≈ 3.76 µM) | 2 µg/mL (≈ 3.76 µM) | 1 µg/mL (≈ 1.88 µM) |  |  |  |  | 
11 | COc1cc(-c2nnc(NC(=O)CC3SC(=O)NC3=O)s2)cc(OC)c1OC (centres undefined) | 16 µg/mL (≈ 37.7 µM) | 32 µg/mL (≈ 75.4 µM) | 36 µM | 30 µM | 16 µg/mL (≈ 37.7 µM) | 16 µg/mL (≈ 37.7 µM) | 16 µg/mL (≈ 37.7 µM) | 35 µM | 33 µM | 16 µg/mL (≈ 37.7 µM) | 16 µg/mL (≈ 37.7 µM) | 16 µg/mL (≈ 37.7 µM)
12 | O=C(CC1SC(=O)NC1=O)Nc1nnc(C(F)(F)F)s1 (centres undefined) | 32 µg/mL (≈ 98.1 µM) | 16 µg/mL (≈ 49 µM) | 62 µM | 60 µM | 16 µg/mL (≈ 49 µM) | 16 µg/mL (≈ 49 µM) | 32 µg/mL (≈ 98.1 µM) | 50 µM | 42 µM | 32 µg/mL (≈ 98.1 µM) | 32 µg/mL (≈ 98.1 µM) | 32 µg/mL (≈ 98.1 µM)
13 | O=C(CC1SC(=O)NC1=O)Nc1nnc(-c2ccc(Br)cc2)s1 (centres undefined) | 32 µg/mL (≈ 77.4 µM) | 16 µg/mL (≈ 38.7 µM) | 72 µM | 68 µM | 16 µg/mL (≈ 38.7 µM) | 16 µg/mL (≈ 38.7 µM) | 16 µg/mL (≈ 38.7 µM) | 60 µM | 52 µM | 8 µg/mL (≈ 19.4 µM) | 32 µg/mL (≈ 77.4 µM) | 32 µg/mL (≈ 77.4 µM)
14 | O=C(CC1SC(=O)NC1=O)Nc1nnc(-c2ccc(Cl)cc2)s1 (centres undefined) | 32 µg/mL (≈ 86.8 µM) | 16 µg/mL (≈ 43.4 µM) | 68 µM | 60 µM | 16 µg/mL (≈ 43.4 µM) | 16 µg/mL (≈ 43.4 µM) | 16 µg/mL (≈ 43.4 µM) | 64 µM | 62 µM | 4 µg/mL (≈ 10.8 µM) | 32 µg/mL (≈ 86.8 µM) | 32 µg/mL (≈ 86.8 µM)
15 | Cc1ccc(-c2nnc(NC(=O)CC3SC(=O)NC3=O)s2)cc1 (centres undefined) | 4 µg/mL (≈ 11.5 µM) | 32 µg/mL (≈ 91.8 µM) | 52 µM | 46 µM | 16 µg/mL (≈ 45.9 µM) | 32 µg/mL (≈ 91.8 µM) | 32 µg/mL (≈ 91.8 µM) | 58 µM | 50 µM | 8 µg/mL (≈ 23 µM) | 16 µg/mL (≈ 45.9 µM) | 16 µg/mL (≈ 45.9 µM)
16 | COc1cccc(-c2nnc(NC(=O)CC3SC(=O)NC3=O)s2)c1 (centres undefined) | 8 µg/mL (≈ 22 µM) | 16 µg/mL (≈ 43.9 µM) | 58 µM | 60 µM | 16 µg/mL (≈ 43.9 µM) | 32 µg/mL (≈ 87.8 µM) | 16 µg/mL (≈ 43.9 µM) | 56 µM | 54 µM | 4 µg/mL (≈ 11 µM) | 32 µg/mL (≈ 87.8 µM) | 16 µg/mL (≈ 43.9 µM)
